Measured values from patent publication US6849576B2, “Plant-activating agent” (Kao Corporation, priority 2000, dated 2005).

Tests used:
tomato “Momotato” = experiment: Tomato pot test, soil treatment: SPAD value, dry weight, leaf-area, ascorbic acid and nitrate ion in the blade part; type: in vivo; details: for Concentration of ascorbic acid in the blade part / Concentration of nitrate ion in the blade part / Dry weight of plant / Leaf-area: 3rd day after 7th treatment, relative to control area = 100; for SPAD value: soil treated 7 times weekly, about 50 ml per pot, in 3000-fold Otsuka OKF2, 3rd day after 7th treatment, control area 34.3
Experimental: (§1) The SPAD values in the test and control areas grown under the same conditions are measured by Minolta Chlorophyll Meter SPAD 502 (supplied by Minolta Co., Ltd.). This is an apparatus to measure the amount of chlorophyll of plants (leaves) without destruction. Raw leaves are inserted into this apparatus and irradiated with light (stroboscopic emission by a xenon lamp). The transmission light is passed through a filter having 670 nm of the maximum wavelength to be absorbed by chlorophyll and another filter having 750 nm of the non-specific absorption band of a polymer such as protein, the difference in light absorption amounts at both wavelengths is measured by an integrated circuit and converted digitally, and then the value is expressed. The value is indicated in terms of numerical values between zero to 80 (SPAD value). The SPAD value has a high correlation with the chlorophyll content per unit area of a leaf. The following regression formula is satisfied between the value (X) measured by SPAD 502 and the chlorophyll content (Y) (mg/100 cm^2) (Shokubutsu Eiyo Jikken Ho (translated as Method for testing nutrition of plants), 2nd press., pp. 366-367 issued on Apr. 20th, 1991 by Hakuyu Sha K. K.).
(§2) The improved degree of the SPAD value in the present invention is calculated as follows: Improved degree of the SPAD value=(SPAD value in test area)−(SPAD value in control area).
(§3) The measuring time of the SPAD is not limited but only necessitates that the area of a leaf of the plant reaches to an area (about 5 mm×5 mm or more) measurable by a SPAD meter after a treatment with the substance acting as the plant-activating agent. The measurement of the SPAD value is carried out at least 20 times on the same leaf position of a plant treated with the substance acting as the plant-activating agent and of another plant not treated with the substance acting as a plant-activating agent, and the average value thereof is used.
(§4) The increased amount in weight of a plant (b) is calculated from fresh weights or dry weights in the test area and control area in which plants have been grown under the same conditions, like in the above-mentioned [i]. […] The weight of a plant is measured as follows. Each and all plants treated with the substance acting as the plant-activating agent (test area) and not treated with the substance acting as the plant-activating agent (control area) are taken out of a cultivation apparatus (e.g. a pot), soil and contaminations adhering to roots are washed away by running water sufficiently, and respective weights are measured (fresh weight). Each of the plants is dried at 70° C. for 5 days and the weight thereof after the drying is measured (dry weight). Increased amounts in weight of plants are calculated respectively by the following manner. Herein, though any of the fresh weight and dry weight may be calculated, the dry weight is preferably calculated for directly reflecting the net weight of an anabolite (assimilate). Increased amount (%) in weight (fresh weight) of a plant=[(fresh weight in test area−fresh weight in control area)/(fresh weight in control area)]×100 Increased amount (%) in weight (dry weight) of a plant=[(dry weight in test area−dry weight in control area)/(dry weight in control area)]×100
(§5) The improved degree of leaf-area of a plant (c) is calculated from leaf-area of whole plants in the test area and control area in which plants have been grown in the same conditions, like in the above-mentioned [i]. The improved degree is preferably not less than 5%, more preferably not less than 7% and most preferably not less than 9%. In the present invention, the improved degree of leaf-area is measured using an automatic planimeter AAC-400 model (supplied by Hayashi Denko K. K.). This automatic planimeter is a device to detect, by a photo-electric element, the extent of blockage of scanning beam by a sample. According to this device, the minimum unit is 1 mm^2, the maximum display number can be shown up to 99999.99 cm^2. […]

spinach “Esper” = experiment: Spinach pot test, soil treatment: SPAD value, dry weight, leaf-area, ascorbic acid and nitrate ion in the blade part; type: in vivo; details: 3rd day after 5th treatment; for Concentration of ascorbic acid in the blade part / Concentration of nitrate ion in the blade part / Dry weight of plant / Leaf-area: relative to control area = 100; for SPAD value: soil treated 5 times weekly, about 150 ml per pot, in water, control area 43.1
Experimental: as §1, §2, §3, §4, §5

Compound	Concentration of ascorbic acid in the blade part (tomato “Momotato”) [%]	Concentration of nitrate ion in the blade part (tomato “Momotato”) [%]	Dry weight of plant (tomato “Momotato”) [%]	Leaf-area (tomato “Momotato”) [%]	SPAD value (tomato “Momotato”) [point]	Concentration of ascorbic acid in the blade part (spinach “Esper”) [%]	Concentration of nitrate ion in the blade part (spinach “Esper”) [%]	Dry weight of plant (spinach “Esper”) [%]	Leaf-area (spinach “Esper”) [%]	SPAD value (spinach “Esper”) [point]
POE(6) sorbitan monolaurate [Comparative product 3-3]	101	99	100	102	35.0	–	–	–	–	–
Sodium POE(3) lauryl ether sulfate [Comparative product 3-4]	101	100	100	100	34.9	–	–	–	–	–
CCCCCCCCCCCCCCCCCCOCCCCCCCCCCCCCCCCCC [Inventive product 4-9, Distearyl ether]	–	–	–	–	–	120	73	116	111	49.5
POE(20) sorbitan monooleate [Comparative product 4-1, reference compound]	–	–	–	–	–	98	100	101	96	43.5
POE(20) sorbitan monooleate [Comparative product 3-1]	100	99	103	102	35.1	–	–	–	–	–
Hexaglycerol monostearate [Inventive product 3-16]	119	84	115	108	36.8	–	–	–	–	–
CC(C)C[C@H](N)C(=O)O [Inventive product 4-6, L-leucine]	–	–	–	–	–	113	85	118	110	49.0
POE(20) sorbitan tristearate [Comparative product 3-5]	102	98	101	101	35.1	–	–	–	–	–
CCCCCCCCCCCCCCCCCCOCCCCCCCCCCCCCCCCCC [Inventive product 3-9, Distearyl ether]	134	79	120	112	38.1	–	–	–	–	–
Vitamin B12 [Inventive product 4-2]	–	–	–	–	–	111	85	115	108	45.9
POE(1) stearyl ether [Inventive product 3-11]	116	89	114	108	37	–	–	–	–	–
POE(8) oleyl ether [Comparative product 3-2]	102	98	101	103	35.0	–	–	–	–	–
POE(1) stearyl ether [Inventive product 4-11]	–	–	–	–	–	114	86	112	110	46.8
Sodium POE(3) lauryl ether sulfate [Comparative product 4-2, reference compound]	–	–	–	–	–	95	101	98	95	42.5
